Measurements reported in PubChem BioAssay (NCI).
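The concentration for 50% growth inhibition is given as GI50. TGI marks complete inhibition of growth.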

Tests used:
Assay in all cases: inhibition of tumour cell growth, NCI panel, 384-well format
A549 NSCLC = system: A549 NSCLC
SF-268 CNS = system: SF-268 CNS
KM12 colon = system: KM12 colon
SK-OV-3 ovarian = system: SK-OV-3 ovarian
BT-549 breast = system: BT-549 breast
MDA-MB-231 breast = system: MDA-MB-231 breast
HT29 colon = system: HT29 colon
UACC-62 melanoma = system: UACC-62 melanoma
UO-31 renal = system: UO-31 renal
OVCAR-3 ovarian = system: OVCAR-3 ovarian
786-0 renal = system: 786-0 renal
SNB-19 CNS = system: SNB-19 CNS
NCI-H226 lung = system: NCI-H226 lung
MCF7 breast = system: MCF7 breast
CCRF-CEM leukemia = system: CCRF-CEM leukemia
SW-620 colon = system: SW-620 colon
NCI/ADR-RES ovarian = system: NCI/ADR-RES ovarian
RXF 393 renal = system: RXF 393 renal
HL-60(TB) leukemia = system: HL-60(TB) leukemia
HCT-116 colon = system: HCT-116 colon
LOX IMVI melanoma = system: LOX IMVI melanoma
HOP-92 NSCLC = system: HOP-92 NSCLC
MDA-MB-435 melanoma = system: MDA-MB-435 melanoma
M14 melanoma = system: M14 melanoma
NCI-H23 lung = system: NCI-H23 lung
OVCAR-8 ovarian = system: OVCAR-8 ovarian
CAKI-1 renal = system: CAKI-1 renal
PC-3 prostate = system: PC-3 prostate
SN12C renal = system: SN12C renal
HCT-15 colon = system: HCT-15 colon
SK-MEL-5 melanoma = system: SK-MEL-5 melanoma
IGROV1 ovarian = system: IGROV1 ovarian
DU-145 prostate = system: DU-145 prostate
COLO 205 colon = system: COLO 205 colon
HOP-62 NSCLC = system: HOP-62 NSCLC
RPMI-8226 leukemia = system: RPMI-8226 leukemia
SNB-75 CNS = system: SNB-75 CNS
MDA-MB-468 breast = system: MDA-MB-468 breast
A498 renal = system: A498 renal
EKVX NSCLC = system: EKVX NSCLC
NCI-H460 NSCLC = system: NCI-H460 NSCLC
T-47D breast = system: T-47D breast
TK-10 renal = system: TK-10 renal
ACHN renal = system: ACHN renal
MOLT-4 leukemia = system: MOLT-4 leukemia
SK-MEL-28 melanoma = system: SK-MEL-28 melanoma
OVCAR-4 ovarian = system: OVCAR-4 ovarian
NCI-H322M lung = system: NCI-H322M lung
HCC-2998 colon = system: HCC-2998 colon
SF-295 CNS = system: SF-295 CNS
HS 578T breast = system: HS 578T breast
NCI-H522 lung = system: NCI-H522 lung
UACC-257 melanoma = system: UACC-257 melanoma
OVCAR-5 ovarian = system: OVCAR-5 ovarian
MALME-3M melanoma = system: MALME-3M melanoma
K-562 leukemia = system: K-562 leukemia
U251 glioblastoma = system: U251 glioblastoma
SF-539 CNS = system: SF-539 CNS

For `NC(=O)[C@H]1CCN(c2ncnc(N)c2F)C[C@@H]1N1CCC[C@@H](Nc2cc(Cl)cc(C(F)(F)F)c2)C1=O`, the GI50 (A549 NSCLC) was 10.3 µM, the TGI (A549 NSCLC) was 25 µM and the GI50 (SF-268 CNS) was 3.26 µM. The TGI (SF-268 CNS) was 10.5 µM, the GI50 (KM12 colon) was 4.29 µM and the TGI (KM12 colon) was 30.7 µM. The GI50 (SK-OV-3 ovarian) was 6.43 µM, the TGI (SK-OV-3 ovarian) was 40.1 µM and the GI50 (BT-549 breast) was 15.6 µM. The TGI (BT-549 breast) was 31.6 µM, the GI50 (MDA-MB-231 breast) was 10.7 µM and the TGI (MDA-MB-231 breast) was 39.7 µM. The GI50 (HT29 colon) was 7.05 µM, the TGI (HT29 colon) was 22 µM and the GI50 (UACC-62 melanoma) was 6.7 µM. The TGI (UACC-62 melanoma) was 19.7 µM, the GI50 (UO-31 renal) was 20.3 µM and the TGI (UO-31 renal) was 57.4 µM. It also gave a GI50 (OVCAR-3 ovarian) of 16.3 µM, a TGI (OVCAR-3 ovarian) of 35.4 µM and a GI50 ([…]-0 renal) of 15.6 µM. The TGI (786-0 renal) was 53.4 µM, the GI50 (SNB-19 CNS) was 30 µM and the TGI (SNB-19 CNS) was over 100 µM. The GI50 (NCI-H226 lung) was 10.9 µM, the TGI (NCI-H226 lung) was 34.5 µM and the GI50 (MCF7 breast) was 14.5 µM. For the same compound, the TGI (MCF7 breast) was 36.3 µM, the GI50 (CCRF-CEM leukemia) was 10.2 µM and the TGI (CCRF-CEM leukemia) was 22.1 µM. The GI50 (SW-620 colon) was 15.2 µM, the TGI (SW-620 colon) was 31.9 µM and the GI50 (NCI/ADR-RES ovarian) was 47.6 µM. For the same compound, the TGI (NCI/ADR-RES ovarian) was over 100 µM, the GI50 (RXF 393 renal) was 3.44 µM and the TGI (RXF 393 renal) was 13.4 µM. The GI50 (HL-60(TB) leukemia) was 10.8 µM, the TGI (HL-60(TB) leukemia) was 22.7 µM and the GI50 (HCT-116 colon) was 9.04 µM. The TGI (HCT-116 colon) was 22 µM, the GI50 (LOX IMVI melanoma) was 11.2 µM and the TGI (LOX IMVI melanoma) was 23.4 µM. The GI50 (HOP-92 NSCLC) was 13.8 µM, the TGI (HOP-92 NSCLC) was 33.7 µM and the GI50 (MDA-MB-435 melanoma) was 19.9 µM. The TGI (MDA-MB-435 melanoma) was 67.1 µM, the GI50 (M14 melanoma) was 10.9 µM and the TGI (M14 melanoma) was 24.4 µM. It also gave a GI50 (NCI-H23 lung) of 14.8 µM, a TGI (NCI-H23 lung) of 32.2 µM and a GI50 (OVCAR-8 ovarian) of 21.5 µM. For the same compound, the TGI (OVCAR-8 ovarian) was 73.6 µM, the GI50 (CAKI-1 renal) was 11.5 µM and the TGI (CAKI-1 renal) was 54.3 µM. It also gave a GI50 (PC-3 prostate) of 11.6 µM, a TGI (PC-3 prostate) of 46.8 µM and a GI50 (SN12C renal) of 8.02 µM. The TGI (SN12C renal) was 38.4 µM, the GI50 (HCT-15 colon) was 8.54 µM and the TGI (HCT-15 colon) was 32.7 µM. The GI50 (SK-MEL-5 melanoma) was 9.85 µM, the TGI (SK-MEL-5 melanoma) was 21.6 µM and the GI50 (IGROV1 ovarian) was 2.34 µM. It also gave a TGI (IGROV1 ovarian) of 17.4 µM, a GI50 (DU-145 prostate) of 15.6 µM and a TGI (DU-145 prostate) of 53.1 µM. For the same compound, the GI50 (COLO 205 colon) was 7.06 µM, the TGI (COLO 205 colon) was 21.5 µM and the GI50 (HOP-62 NSCLC) was 13.6 µM. It also gave a TGI (HOP-62 NSCLC) of 35.8 µM, a GI50 (RPMI-8226 leukemia) of 11 µM and a TGI (RPMI-8226 leukemia) of 23.1 µM. The GI50 (SNB-75 CNS) was 12.5 µM, the TGI (SNB-75 CNS) was 34.2 µM and the GI50 (MDA-MB-468 breast) was 2.21 µM. For the same compound, the TGI (MDA-MB-468 breast) was 11.9 µM, the GI50 (A498 renal) was 12.5 µM and the TGI (A498 renal) was 29.2 µM. The GI50 (EKVX NSCLC) was 12.2 µM, the TGI (EKVX NSCLC) was 39.4 µM and the GI50 (NCI-H460 NSCLC) was 13.4 µM. It also gave a TGI (NCI-H460 NSCLC) of 27.1 µM, a GI50 (T-47D breast) of 6.32 µM and a TGI (T-47D breast) of 23.2 µM. For the same compound, the GI50 (TK-10 renal) was 14.8 µM, the TGI (TK-10 renal) was 37.5 µM and the GI50 (ACHN renal) was 7.86 µM. For the same compound, the TGI (ACHN renal) was 25.9 µM, the GI50 (MOLT-4 leukemia) was 1.85 µM and the TGI (MOLT-4 leukemia) was 6.1 µM. It also gave a GI50 (SK-MEL-28 melanoma) of 15.4 µM, a TGI (SK-MEL-28 melanoma) of 32.5 µM and a GI50 (OVCAR-4 ovarian) of 19.9 µM. For the same compound, the TGI (OVCAR-4 ovarian) was 64.8 µM, the GI50 (NCI-H322M lung) was 21.3 µM and the TGI (NCI-H322M lung) was 52 µM. It also gave a GI50 (HCC-2998 colon) of 13.6 µM, a TGI (HCC-2998 colon) of 28.5 µM and a GI50 (SF-295 CNS) of 14.5 µM. The TGI (SF-295 CNS) was 31.6 µM, the GI50 (HS 578T breast) was 17.4 µM and the TGI (HS 578T breast) was 39.3 µM. For the same compound, the GI50 (NCI-H522 lung) was 5.3 µM, the TGI (NCI-H522 lung) was 17.9 µM and the GI50 (UACC-257 melanoma) was 14.9 µM. The TGI (UACC-257 melanoma) was 28.5 µM, the GI50 (OVCAR-5 ovarian) was 12.9 µM and the TGI (OVCAR-5 ovarian) was 40.2 µM. For the same compound, the GI50 (MALME-3M melanoma) was 14.5 µM, the TGI (MALME-3M melanoma) was 28.5 µM and the GI50 (K-562 leukemia) was 8.33 µM. It also gave a TGI (K-562 leukemia) of 20.9 µM, a GI50 (U251 glioblastoma) of 17.2 µM and a TGI (U251 glioblastoma) of 60 µM. The GI50 (SF-539 CNS) was 14.5 µM and the TGI (SF-539 CNS) was 33.8 µM.
